From paper PMC6669608, “Evaluation of Oxasqualenoids from the Red Alga Laurencia viridis against Acanthamoeba” (Marine Drugs, 2019)

Key:
[1] = system: Acanthamoeba castellanii Neff cysts; assay: In vitro activity against Acanthamoeba castellanii Neff cysts (alamarBlue); type: cell-based; settings: 168 h, mature cysts, 7 d incubation, read-out: IC50, cysticidal activity against A. castellanii Neff
Procedure: The cysticidal activity of DT was determined by the alamarBlue™ assay and confirmed visually by inverted microscopy. Cysts of A. castellanii Neff were prepared as previously described. Briefly, trophozoites were transferred from PYG medium based cultures (trophozoite medium) to Neff’s encystment medium (NEM; 0.1 M KCl, 8 mM MgSO4·7H2O, 0.4 mM CaCl2·2H2O, 1 mM NaHCO3, 20 mM ammediol (2-amino-2-methyl-1,3-propanediol; Sigma Aldrich, Madrid, Spain), pH 8.8 at 25 °C) and were cultured in this medium with gentle shaking for a week in order to obtain mature cysts. After that, mature cysts were harvested and washed twice using PYG medium.
A serial dilution of the tested molecules was made in PYG. The in vitro susceptibility assay was performed in sterile 96-well microtiter plates (Corning™). To these wells, containing 50 µL of drug dilutions, 5 × 10^4 mature cysts of Acanthamoeba/mL were added. After 7 d of incubation with the drugs, the plate was centrifuged at 3000 rpm for 10 min. The supernatant was removed and replaced with 100 µL of fresh PYG medium in each well. Finally, 10 μL of the Alamar Blue Assay Reagent (Biosource, Europe, Nivelles, Belgium) was placed into each well, and the plates were then incubated for 144 h at 28 °C. The emitted fluorescence was periodically examined with an Enspire microplate reader (PerkinElmer, Waltham, MA, USA) at 570/585 nm.

[2] = Cytotoxicity assay (alamarBlue); type: cell-based, murine; settings: mouse; 24 h, 37 °C; read-out: CC50, toxicity against murine macrophage J774.A1
Procedure: (§1) The antiamoeboid activity of the compounds was evaluated against Acanthamoeba castellanii Neff (ATCC 30010) type strain from the American Type Culture Collection. This strain was axenically incubated in PYG medium (0.75% (w/v) proteose Peptone, 0.75% (w/v) Yeast extract, and 1.5% (w/v) Glucose) supplemented with 10 µg/mL gentamicin (Sigma-Aldrich, Madrid, Spain). As for the cytotoxicity assays, murine macrophages J774A.1 (ATCC TIB-67) were used, cultivated in DMEM medium (Dulbecco’s modified eagle medium, Gibco Life Technologies, California, USA) with 10% supplement of fetal bovine serum (FBS) and 10 µg/mL gentamicin at 37 °C in a 5% CO2 incubator.
The cytotoxicity of the tested compounds was determined in vitro with murine macrophages (J774A.1). For this assay, the DMEM culture medium was changed from RPMI without phenol red (Roswell Park Memorial Institute, Thermo Fisher Scientific Inc., Waltham, MA, USA) to L-Glutamine supplemented with 10% (v/v) inactivated FBS and with 10 µg/mL gentamicin. In this assay, the macrophages were counted and seeded into a 96-well microtiter plate, adding 50 µL to each well from a stock solution of 2 × 10^5 cells/mL. Cells were then left to adhere for 15 min to the plate bottom and were checked with the inverted microscope Leica DMIL. After that, 50 µL of a serial dilution of the compounds was added to the 96-well microtiter plate. Finally, alamarBlue™ was added into each well at an amount equal to 10% of the final volume and incubated at 37 °C in the presence of CO2 at 5% for 24 h. After this period of time, as in the in vitro anti-Acanthamoeba assay, the fluorescence was determined with an EnSpire Multimode Plate Reader (PerkinElmer, Inc, Waltham, MA, USA) at a wavelength of 570/585 nm. The cytotoxicity concentration to inhibit the growth of 50% of murine macrophages (CC50) was calculated through nonlinear regression analysis with 95% confidence limits using the software Sigma Plot 12.0 (Systat Software, Inc, San Jose, CA 95110 USA). Experiments were performed three times each, allowing for standard deviation.

A. castellanii Neff [3] = assay: Intracellular ROS production (CellROX Deep Red); type: cell-based, Acanthamoeba castellanii Neff; settings: IC90, 24 h
Procedure: Generation of intracellular ROS was detected using the CellROX® Deep Red fluorescent probe (Invitrogen, Thermo Fisher Scientific Inc., Waltham, MA, USA). The cells were treated with IC90 of DT for 24 h and exposed to CellROX® Deep Red (5 μM, 30 min) at 26 °C in the dark.

A. castellanii Neff [4] = assay: Double-stain assay (Hoechst 33342/PI) for programmed cell death; type: cell-based, Acanthamoeba castellanii Neff; settings: IC90, 24 h
Procedure: A double-stain apoptosis detection kit (Hoechst 33342/PI) (GenScript, Piscataway, NJ, USA) and an EVOS FL Cell Imaging System AMF4300 (Life Technologies, Carlsbad, CA, USA) were used. The experiment was carried out by following the manufacturer’s recommendations, and 10^5 cells/well were incubated in a 24-well plate for 24 h with the previously calculated IC90. The double-staining pattern allows the identification of three groups in a cellular population: live cells will show only a low level of fluorescence, cells undergoing programmed cell death (PCD) will show a higher level of blue fluorescence (as chromatin condenses), and dead cells will show low-blue and high-red fluorescence (as the propidium iodide stain enters the nucleus).

[5] = system: Acanthamoeba castellanii Neff trophozoites; assay: In vitro activity against Acanthamoeba trophozoites (alamarBlue colorimetric assay); type: cell-based, Acanthamoeba castellanii Neff (ATCC 30010); settings: trophozoites, 96 h, 26 °C, read-out: IC50 against Acanthamoeba castellanii Neff
Procedure: as §1
The in vitro activities of the different compounds of Laurencia were evaluated using a previously developed colorimetric assay based on the alamarBlue™ Cell Viability Reagent assay (Life Technologies, Barcelona, Spain). Briefly, 50 µL of 5 × 10⁴ trophozoites/mL were seeded onto a 96-well microtiter plate. After 15 min, the adherence of the cells to the plate bottom was confirmed by the use of the inverted microscope Leica DMIL (Leica, Wetzlar, Germany). Furthermore, 50 µL of serial dilutions of each compound was added to the 96-well microtiter plate. Finally, alamarBlue™ was placed into each well at 10% of the final volume and incubated at 26 °C with slight agitation. After 96 h, the fluorescence was measured with EnSpire Multimode Plate Reader (Perkin Elmer, Madrid, Spain) at a wavelength of 570/585 nm. The inhibitory concentration to inhibit the growth of 50% of the parasites (IC50) was calculated through nonlinear regression analysis with 95% confidence limits using the software Sigma Plot 12.0 (Systat Software Inc., London, UK). The experiments were performed three times each, allowing for standard deviation.

A. castellanii Neff [6] = assay: Analysis of mitochondrial membrane potential (JC-1); type: cell-based, Acanthamoeba castellanii Neff; settings: IC90, 24 h
Procedure: Collapse of the electrochemical gradient across the mitochondrial membrane during apoptosis was detected with the JC-1 mitochondrial membrane potential detection kit (Cell Technology, Fremont, CA, USA). After being treated with IC90 of the test compound for 24 h, the cells were centrifuged (1000 rpm × 10 min) and resuspended in JC-1 buffer. Images were taken on an EVOS FL Cell Imaging System AMF4300 (Life Technologies, San Francisco, CA, USA) from Life Technologies (Madrid, Spain). The staining pattern allows the identification of two groups in a cellular population: live cells will show only red fluorescence; cells with low mitochondrial potential, (undergoing PCD) will show a higher level of green and red fluorescence.

Q: With C=C(CC[C@H](O)[C@@]1(C)CC[C@H](C(C)(C)O)O1)[C@H]1CC[C@H]2O[C@@H]([C@]3(C)CC[C@@H](Br)C(C)(C)O3)CC[C@]2(C)O1 [Compound 1, dehydrothyrsiferol] as the compound, how does the IC50 [1] read?
A: Its IC50 is 39.27 ± 0.14 µM.

Q: What about the CC50 [2] of the same compound?
A: Its CC50 is 28.8 ± 3.1 µM.

Q: What about the “reactive oxygen species (ROS) levels” value (A. castellanii Neff [3]) of the same compound?
A: Its value is “increased levels of ROS”.

Q: And the “chromatin condensation (Hoechst 33342/propidium iodide double stain)” value (A. castellanii Neff [4])?
A: The value was “induce chromatin condensation”.

Q: And the IC50 [5]?
A: Its IC50 is 12.8 ± 1.38 µM.

Q: What about the “mitochondrial membrane potential (JC-1)” value (A. castellanii Neff [6]) of the same compound?
A: Its value is “mitochondrial membrane potential collapsed”.
